Measured values: patent US8722697B2, “Pharmaceutical composition for treating hypertension and metabolic syndrome and use thereof” (Lunan Pharmaceutical Group Corporation, priority 2008, dated 2014)

Tests used:
calcium channel = details: background statement; cited from earlier work
[1] = system: spontaneously hypertensive rats; assay: Tail arterial blood pressure of conscious spontaneously hypertensive rats; format: in vivo, rat; details: X ± S, n = 8
Description: (§1) Forty-eight spontaneously hypertensive rats (male, body weight (300±20) g, provided by Pharmacological Center for New Medicine of Shandong New Time Pharmaceutical Co., Ltd.) were fed for one week for acclimation, and then randomly divided into six groups with eight animals in each group.
(§2) Model control group: intragastric administration of same volume of physiological saline;
(§3) P group: 1 mg/(kg·d) of pioglitazone;
(§4) A+R group: 2 mg/(kg·d) of amlodipine+1 mg/(kg·d) of rosuvastatin calcium;
(§5) P+R group: 1 mg/(kg·d) of pioglitazone+1 mg/(kg·d) of rosuvastatin calcium;
(§6) Pharmaceutical composition of the present invention: 2 mg/(kg·d) of amlodipine+1 mg/(kg·d) of pioglitazone+1 mg/(kg·d) of rosuvastatin calcium;
(§7) Each group was given intragastric administration once every day for ten weeks. During the experiment, the diet, survival status and behaviors of the animals were recorded, and the animals were weighted once every day and the doses of administration were adjusted according to the body weights. Animals were sacrificed after ten weeks, and their hearts were taken out to determine the weights of left ventricles and calculate left ventricular indexes.
Blood pressures were measured five times between two and five hours after intragastric administration in the first week, the third week and the sixth week, respectively. The average value of the blood pressures was used as the blood pressure of the sample.

[2] = system: spontaneously hypertensive rats; assay: Cardiac hypertrophy (left ventricular weight/body weight) in spontaneously hypertensive rats; format: in vivo, rat; details: after ten weeks of intragastric administration once daily; X ± S, n = 8
Description: as §1, §2, §3, §4, §5, §6, §7
After being sacrificed with 10% potassium chloride (2 mmol/L, 1 ml/rat), the rats were weighed. […] The left ventricular was weighed after the atria were removed, and a ratio of left ventricular weight to body weight was calculated.

[3] = system: spontaneously hypertensive rats; assay: Urinary microalbumin (bromophenol blue absorbance) in spontaneously hypertensive rats; format: in vivo, rat; details: intragastric once daily, high sugar and high fat diets, doses per group b107-b111; twelve-hour overnight urine; week not stated; X ± S, n = 8
Text: as §2

[4] = system: spontaneously hypertensive rats; assay: Carotid intima-media thickness in spontaneously hypertensive rats; format: in vivo, rat; details: carotid artery; intragastric once daily for six months, high sugar and high fat diets; X ± S, n = 8
Description: Forty-eight spontaneously hypertensive rats (male, body weight (300±20) g, provided by the Pharmacological Center for New Medicine of Shandong New Time Pharmaceutical Co., Ltd.) were fed for one week for acclimation, and then randomly divided into six groups with eight rats in each group.
as §2
P group: intragastric administration of 2 mg/(kg·d) of pioglitazone;
LA+R group: intragastric administration of 1 mg/(kg·d) of levo-amlodipine+1 mg/(kg·d) of rosuvastatin calcium;
P+R group: intragastric administration of 2 mg/(kg·d) of pioglitazone+1 mg/(kg·d) of rosuvastatin calcium;
LA group: intragastric administration of 1 mg/(kg·d) of levo-amlodipine;
Pharmaceutical composition of the present invention: intragastric administration of 1 mg/(kg·d) of levo-amlodipine+2 mg/(kg·d) of pioglitazone+1 mg/(kg·d) of rosuvastatin calcium;
Each group was given intragastric administration once every day and fed with high sugar and high fat diets for six months. During the experiment, the diet, survival status and behaviors of the animals were recorded, and the animals were weighed once every week and the doses of administration were adjusted according to the body weights.
After the animal was anesthetized and fixed, Even's blue (60 mg/kg) dye was injected via a femoral artery. […]

[5] = system: patients suffered from metabolic syndrome; assay: Clinical treatment of patients suffered from metabolic syndrome; format: in vivo, human; details: X ± S
Text: Eighty-eight metabolic syndrome patients were selected from those received treatment in Linyi People's Hospital from May 2007 to May 2008, and randomly divided into a control group and an experimental group.
Control group: twenty-eight males and sixteen females, whose ages were between 62 and 71 and whose body mass indexes (BMI) were between 25.5 and 30;
Experimental group: twenty-four males and twenty females, whose ages were between 60 and 70 and whose body mass indexes (BMI) were between 24.5 and 31;
Before the treatment, all patients were subjected to blood lipids (including total cholesterol (TC), high-density lipid cholesterol (HDLC)) analysis, and detection of glycated hemoglobin (HbAlC), fasting blood glucose (FBG), fasting insulin (FINS) and fibrinogen (Fg).
Patients suffered from metabolic syndrome were selected according to the diagnostic standards for type-II diabetes mellitus and hypertension made by WHO in 1999 and referring to the diagnostic standards for metabolic syndrome made by US National Cholesterol Education Program Adult Treatment Panel (NCEP-ATP III) in 2000, while cases of […], heart failure (above grade II), diseases in liver, kidney and blood system and like were excluded.
Patients in the control group were administrated with 15 mg of pioglitazone once every day, and patients in the experimental group were administrated with 5 mg of amlodipine, 7.5 mg of pioglitazone and 5 mg of rosuvastatin calcium, i.e. the proportions as described in Example 1, once every day. After eight weeks of continuous treatment, all of the above parameters were re-determined, in which blood glucose was determined with hexokinase method, blood lipid was determined with esterase method, fibrinogen was determined with coagulation method and chromogenic substrate assay, HbAlC was determined with chromatography, and fasting insulin was determined with chemiluminescence immunoassay.
Statistical analysis: SPSS software was employed, and test of significance was performed by using a paired sample t test.

[6] = intragastric once daily, 2-5 h after administration

Compound | Activity relative to the dextroisomer (calcium channel) [times] | Activity relative to the racemate (calcium channel) | Blood pressure, before treatment ([1]; baseline before treatment) [mmHg] | Blood pressure after treatment, first week [1, 6] [mmHg] | Blood pressure after treatment, sixth week [1, 6] [mmHg] | Blood pressure after treatment, third week [1, 6] [mmHg] | Left ventricular weight [2] [g] | Left ventricular weight/body weight (×10^−3) [2] | Urinary microalbumin, Absorbance A (600 nm) [3] | Maximum intima thickness [4] [mm] | Ratio of intima to media thickness [4] | FINS (fasting insulin), after treatment ([5]; after eight weeks, once every day, chemiluminescence immunoassay) [mlU/L] | HbAlC (glycated hemoglobin), after treatment ([5]; after eight weeks, once every day, chromatography) [%] | Fg (fibrinogen), after treatment ([5]; after eight weeks, once every day, coagulation method and chromogenic substrate assay) [mg/dL] | FBG (fasting blood glucose), after treatment ([5]; after eight weeks, once every day, hexokinase method) [mmol/L] | FINS (fasting insulin), before treatment ([5]; baseline before treatment, chemiluminescence immunoassay) [mlU/L] | HbAlC (glycated hemoglobin), before treatment ([5]; baseline before treatment, chromatography) [%] | Fg (fibrinogen), before treatment ([5]; baseline before treatment, coagulation method and chromogenic substrate assay) [mg/dL] | FBG (fasting blood glucose), before treatment ([5]; baseline before treatment, hexokinase method) [mmol/L]
levo-amlodipine [A Group] | 1000 | twice as high as that of the racemate |  |  |  |  |  |  |  |  |  |  |  |  |  |  |  |  | 
CCc1ccc(CCOc2ccc(CC3SC(=O)NC3=O)cc2)nc1 (stereo not shown) [P group, pioglitazone] |  |  | 151 ± 7.6 | 157 ± 8.6 | 170 ± 8.8 | 162 ± 10.3 | 0.99 ± 0.10 | 3.33 ± 0.19 ×10^−3 | 0.568 ± 0.125^• | 0.130 ± 0.026 | 2.246 ± 0.361 | 25.68 ± 5.34 | 6.39 ± 0.56 | 392.6 ± 64.51 | 6.63 ± 1.65 | 32.4 ± 7.21 | 6.89 ± 0.65 | 419.6 ± 89.62 | 7.12 ± 2.06
